The target in series [1] is T1, ERα (Homo sapiens, UniProt P03372).
T1 construct: employs a full length and native ER (comprised of an ER LBD and an ER DBD)
T1 sequence (P03372 1-595): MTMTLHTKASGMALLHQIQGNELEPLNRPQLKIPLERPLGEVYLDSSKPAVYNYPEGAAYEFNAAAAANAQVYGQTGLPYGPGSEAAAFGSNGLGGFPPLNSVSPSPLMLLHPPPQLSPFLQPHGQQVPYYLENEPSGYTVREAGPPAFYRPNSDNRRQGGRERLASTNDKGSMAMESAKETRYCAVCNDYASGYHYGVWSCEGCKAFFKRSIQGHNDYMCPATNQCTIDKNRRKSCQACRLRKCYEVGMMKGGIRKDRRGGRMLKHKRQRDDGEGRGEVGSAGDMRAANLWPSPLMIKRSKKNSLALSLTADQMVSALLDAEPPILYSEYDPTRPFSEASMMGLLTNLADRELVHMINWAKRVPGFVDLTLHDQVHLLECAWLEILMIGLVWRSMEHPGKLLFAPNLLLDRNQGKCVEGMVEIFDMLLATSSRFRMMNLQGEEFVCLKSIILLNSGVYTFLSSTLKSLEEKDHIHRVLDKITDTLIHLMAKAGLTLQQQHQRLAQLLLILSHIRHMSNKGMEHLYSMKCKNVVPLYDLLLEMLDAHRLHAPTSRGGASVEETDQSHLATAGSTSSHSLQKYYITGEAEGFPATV
As to the kind of experiment: Cell-based luciferase reporter assay, full length ERα, agonist mode. Conditions: 22 h. (Reporter assays use an easily measured gene product as a stand-in for the process of interest.)

Series [2] concerns the target T1, ERα. In words: Cell-based luciferase reporter assay, full length ERα, antagonist mode.
The target in series [3] is T2, human ER Beta ligand-binding domain (LBD) (Homo sapiens, UniProt Q92731).
T2 construct: purchased Thermo Fisher Scientific
T2 sequence (Q92731 264-498 limits assumed): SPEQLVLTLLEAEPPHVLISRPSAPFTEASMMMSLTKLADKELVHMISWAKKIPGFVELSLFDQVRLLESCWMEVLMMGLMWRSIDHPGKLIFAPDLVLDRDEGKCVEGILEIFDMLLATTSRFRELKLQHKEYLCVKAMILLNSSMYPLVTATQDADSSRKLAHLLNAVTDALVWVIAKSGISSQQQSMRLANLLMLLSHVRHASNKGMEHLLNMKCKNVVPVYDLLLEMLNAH
As to the kind of experiment: TR-FRET competitive binding assay, ERβ LBD. Conditions: displacement of fluorescent tracer from ERβ LBD.

Another series relates to ovariectomized mice. As to the kind of experiment: Peripheral tissue pathology (H&E of liver, kidney, heart). The class given is in vivo. The following applies: 24 h after single IP injection; 0.5 or 5 mg/kg ISP358-2, 0.05 mg/kg DPN. As to the method: Assessment of Potential Peripheral Pathology. To assess possible toxicity of ISP358-2 treatment to peripheral organs, ovariectomized mice received a single intraperitoneal injection of vehicle or ISP358-2, and liver, kidney, and heart tissues were collected 24 hours later. […] Tissues were fixed in 10% formalin buffered solution for 24 hours. Twenty specimens were processed and analyzed. Each specimen contained three pieces of tissue. The tissues from each animal was transferred to a labeled cassette and processed on an automated tissue processor following standard procedures. The tissues were then embedded in paraffin wax. No specific orientation of the tissue was performed. Four-micron sections were cut from each paraffin block and placed onto a slide. The slides were then stained using hematoxylin and cosin (H&E) on an automated stainer (FIGS. 13A-13L). The slides were then examined by a pathologist (ACM) who is board certified in anatomical pathology by the American Board of Pathology. All specimens contained three tissue samples corresponding to liver, kidney, and heart. In some instances, portions of adjacent tissues were also present. […] For heart, the myocytes and coronary vessels were examined, (2) evidence of inflammation was evaluated including hepatitis, glomerulonephritis, interstitial nephritis, and myocarditis, and (3) evidence of ischemic changes was examined. […]

[4] abbreviates: full length ERα, read-out: ERα agon. IC50.
The mark [5] stands for this setting: inhibition of estradiol-induced transcription, read-out: ERα antagon. IC50.

Where “and” joins values, the source holds several entries; their conditions need not be identical. Equal values may be shown once. Where only a bound is given, the exact number is not on record here.

Results on 15 compounds are retold here after patent US20240327421A1 (Marquette University, priority 2017, published 2024).

As a reminder, the IC50 is the concentration that inhibits the measured activity by half. As for `OCC1CC=C(c2ccc(O)cc2)CC1` (racemic) [Compound 18, 4′-(Hydroxymethyl)-2′,3′,4′,5′-tetrahydro-[1,1′-biphenyl]-4-ol], the IC50 at ERα [1] (setting [4]) was above 20 µM; at ERα [2] (setting [5]), above 10 µM. For `C=C1CCC(c2ccc(O)cc2)CC1` [Compound 7, 4-(4-Hydroxyphenyl) methylenecyclohexane], in that order: above 10 µM and above 10 µM. `Oc1ccc([C@H]2CC[C@H](O)CC2)cc1` [Compound 2, trans-4-(4-Hydroxycyclohexyl) phenol]: in series [3], the IC50 was 7.25 µM and 7.52 µM. Still for that read-out and setting: to `Oc1ccc([C@]23CC[C@H](CC2)CO3)cc1` [Compound 17, 1-(4-Hydroxyphenyl)-2-oxabicyclo [2.2.2] octane] belongs 0.25 ± 0.056 µM. On to `OCC=C1CCC(c2ccc(O)cc2)CC1` (stereo not drawn) [Compound 24, 4-(4′-Hydroxyphenyl) (2-hydroxyethylidene) cyclohexane], for which the results for the IC50 in series [3] and in series [3] (listed as (±)-24) were 0.676 µM and 0.68 ± 0.11 µM, respectively.

On to `OCCC1CCC(c2ccc(O)cc2)CC1` (stereo not drawn) [Compound 25, 4-[4-(2-Hydroxyethyl)cyclohexyl] phenol], for which the IC50 is above 50 µM at ERα [1] (setting [4]) and above 10 µM at ERα [2] (setting [5]). Take `O=C1CCC(c2ccc(O)cc2)CC1` [Compound 1, 4-(4-hydroxyphenyl) cyclohexanone]: in series [3], the IC50 amounted to 19 µM. Turning to `C[C@]1(O)CC[C@@H](c2ccc(O)cc2)CC1` [Compound 3, 4-(4-Hydroxy-4-methylcyclohexyl) phenol], in series [3], the IC50 is 6.29 µM. Same read-out and setting: to `C=C1CCC(c2ccc(O)c(/C=N/O)c2)CC1` [Compound 10, 2-Hydroxy-5-(4-methylenecyclohexyl) benzaldehyde oxime] belongs 0.225 ± 0.094 µM. In the case of `C=C1CCC(c2ccc(O)c(C=O)c2)CC1` [Compound 9, 2-Hydroxy-5-(4-methylenecyclohexyl) benzaldehyde], the IC50 in series [3] was 1 µM. The same measure, in the same setting: the result for `OCC1(O)CCC(c2ccc(O)cc2)CC1` (single isomer, unassigned) [Compound 12, 4-(4-Hydroxy-4-(hydroxymethyl)cyclohexyl) phenol] reads 2.7 µM. For `N#CC(Cc1ccc(O)cc1)c1ccc(O)cc1` (stereo not drawn) [DPN, 2,3-bis(4-hydroxyphenyl)-propionitrile, reference compound], the “histological abnormalities / peripheral toxicity in liver, kidney, heart” value in the series with ovariectomized mice is “Histological abnormalities were not detected”. Take `OCC1CCC(c2ccc(O)cc2)CC1` (stereo not drawn) [15:16 (3:2), 4-(4-(Hydroxymethyl)cyclohexyl) phenol]: the IC50 on ERα [1] (ERα agon. IC50, full length ERα) was above 100 µM; on ERα [2], above 10 µM. In the case of `CC1CCC(c2ccc(O)cc2)CC1` (mixture of isomers) [Compound 8, 4-(4-Methylcyclohexyl) phenol], the IC50 on ERα [1] (setting [4]) and on ERα [2] (setting [5]) was above 10 µM each time. In series [3], `ON=C1CCC(c2ccc(O)cc2)CC1` (stereo not drawn) [Compound 4, 4-(4-Hydroxyphenyl) cyclohexanone oxime] returned an IC50 of 1.57 µM.
